Measured values published in patent US6967254B2, “Substituted heterocyclic compounds and methods of use” (Amgen Inc., priority 2002, dated 2005).

System: LPS induced TNF release, THP1 cells
Test: Lipopolysaccharide-Activated THP1 Cell TNF Production Assay (LPS induced TNF release)
Format: cell-based
Settings: Homo sapiens, THP-1, bacterial LPS, 3 h at 37° C., secreted TNF-α read by ECL
Experimental: Lipopolysaccharide-Activated THP1 Cell TNF Production Assay
THP1 cells are resuspended in fresh THP1 media (RPMI 1640, 10% heat-inactivated FBS, 1×PGS, 1×NEAA, plus 30 μM βME) at a concentration of 1E6/mL. One hundred microliters of cells per well are plated in a polystyrene 96-well tissue culture. One microgram per mL of bacterial LPS is prepared in THP1 media and is transferred to the wells. Test compounds are dissolved in 100% DMSO and are serially diluted 3 fold in a polypropylene 96-well microtiter plate (drug plate). HI control and LO control wells contain only DMSO. One microliter of test compound from the drug plate followed by 10 μL of LPS are transferred to the cell plate. The treated cells are induced to synthesize and secrete TNF-α at 37° C. for 3 h. Forty microliters of conditioned media are transferred to a 96-well polypropylene plate containing 110 μL of ECL buffer (50 mM Tris-HCl pH 8.0, 100 mM NaCl, 0.05% Tween 20, 0.05% NaN3 and 1% FBS) supplemented with 0.44 nM MAB610 monoclonal Ab (R&D Systems), 0.34 nM ruthenylated AF210NA polyclonal Ab (R&D Systems) and 44 μg/mL sheep anti-mouse M280 Dynabeads (Dynal). After a 2 h incubation at room temperature with shaking, the reaction is read on the ECL M8 Instrument (IGEN Inc.). A low voltage is applied to the ruthenylated TNF-α: immune complexes, which in the presence of TPA (the active component in Origlo), results in a cyclical redox reaction generating light at […]. The amount of secreted TNF-α in the presence of compound compared with that in the presence of DMSO vehicle alone (HI control) is calculated using the formula: % control (POC)=(cpd−average LO)/(average HI−average LO)*100. Data (consisting of POC and inhibitor concentration in AM) is fitted to a 4-parameter equation (y=A+((B−A)/(1+((x/C)^D))), where A is the minimum y (POC) value, B is the maximum y (POC), C is the x (cpd concentration) at the point of inflection and D is the slope factor) using a Levenburg-Marquardt non-linear regression algorithm.

| Compound | IC50 [µM] |
| --- | --- |
| O=c1[nH]n(C2CCNCC2)c(-c2ccncc2)c1-c1ccc(Cl)cc1 [Example 5, 4-(4-Chloro-phenyl)-1-piperidin-4-yl-5-pyridin-4-yl-1,2-dihydro-pyrazol-3-one] | ≤ 20 |
| O=c1[nH]n(C2CCCNC2)c(-c2ccncc2)c1-c1ccc(Cl)cc1 (stereo not shown) [Example 6, 4-(4-Chloro-phenyl)-1-piperidin-3-yl-5-pyridin-4-yl-1,2-dihydro-pyrazol-3-one] | ≤ 20 |
| CN1CCC(n2[nH]c(=O)c(-c3ccc(Cl)cc3)c2-c2ccncc2)CC1 [Example 10, 4-(4-Chlorophenyl)-1-(1-methyl-piperidin-4-yl)-5-pyridin-4-yl-1,2-dihydro-pyrazol-3-one] | ≤ 20 |
| CN1CCCC(n2[nH]c(=O)c(-c3ccc(Cl)cc3)c2-c2ccncc2)C1 (stereo not shown) [Example 11, 4-(4-Chlorophenyl)-1-(1-methyl-piperidin-3-yl)-5-pyridin-4-yl-1,2-dihydro-pyrazol-3-one] | ≤ 20 |
| CC(C)N1CCC(n2[nH]c(=O)c(-c3ccc(Cl)cc3)c2-c2ccncc2)CC1 [Example 12, 4-(4-Chlorophenyl)-1-(1-isopropyl-piperidin-4-yl)-5-pyridin-4-yl-1,2-dihydro-pyrazol-3-one] | ≤ 20 |
| O=c1[nH][nH]c(-c2ccncc2)c1-c1ccc(Cl)c(Cl)c1 [Example 15, 4-(3,4-Dichloro-phenyl)-5-pyridin-4-yl-1,2-dihydro-pyrazol-3-one] | ≤ 20 |
| CC(C)n1[nH]c(=O)c(-c2ccc(Cl)c(Cl)c2)c1-c1ccncc1 [Example 16, 4-(3,4-Dichloro-phenyl)-1-isopropyl-5-pyridin-4-yl-1,2-dihydro-pyrazol-3-one] | ≤ 20 |
| CC(C)n1c(-c2ccncc2)c(-c2ccc(Cl)c(Cl)c2)c(=O)n1C [Example 17, 4-(3,4-Dichloro-phenyl)-1-isopropyl-2-methyl-5-pyridin-4-yl-1,2-dihydro-pyrazol-3-one] | ≤ 20 |
| Cn1c(=O)c(-c2ccc(Cl)c(Cl)c2)c(-c2ccncc2)n1CC1CCCCC1 [Example 19, 1-Cyclohexylmethyl-4-(3,4-dichloro-phenyl)-2-methyl-5-pyridin-4-yl-1,2-dihydro-pyrazol-3-one] | ≤ 20 |
| NC1CCC(n2[nH]c(=O)c(-c3ccc(Cl)cc3)c2-c2ccncc2)CC1 (stereo not shown) [Example 20, 1-(4-Aminocyclohexyl)-4-(4-chlorophenyl)-5-pyridin-4-yl-1,2-dihydropyrazol-3-one] | ≤ 20 |
